Values after ≈ are worked out from the molar mass of the structure shown.
Tests used:
Experiment in all cases: MIC, standard broth micro-dilution assay
Type in all cases: cell-based
[1] = system: Entercoccus faecalis 2041
Protocol: (§1) The formula I compounds have in vitro and in vivo activity against Gram-positive pathogenic bacteria. The MIC's were determined using a standard broth micro-dilution assay.

Entercoccus faecalis 276 = system: Entercoccus faecalis 276
Protocol: as §1

[2] = system: Entercoccus gallinarum 245
Protocol: as §1

Row | MIC [1] | MIC (Entercoccus faecalis 276) | MIC [2] | Compound
1 | ≤ .06 µg/mL | ≤ .06 µg/mL | ≤ .06 µg/mL | CNC(CC(C)C)C(=O)NC1C(=O)NC(CC(N)=O)C(=O)NC2C(=O)NC3C(=O)NC(C(=O)NC(C(=O)O)c4cc(O)cc(O)c4-c4cc3ccc4O)C(OC3CC(C)(N)C(O)C(C)O3)c3ccc(c(Cl)c3)Oc3cc2cc(c3OC2OC(CO)C(O)C(O)C2OC2CC(C)(NCc3ccc(-c4ccccc4)cc3)C(O)C(C)O2)Oc2ccc(cc2)C1O (stereo not shown) [Compound 185, 4-phenylbenzyl]
2 | ≤ 0.06 µg/mL | ≤ 0.06 µg/mL | 1 µg/mL (≈ 0.553 µM) | CNC(CC(C)C)C(=O)NC1C(=O)NC(CC(N)=O)C(=O)NC2C(=O)NC3C(=O)NC(C(=O)NC(C(=O)O)c4cc(O)cc(O)c4-c4cc3ccc4O)C(OC3CC(C)(N)C(O)C(C)O3)c3ccc(c(Cl)c3)Oc3cc2cc(c3OC2OC(CO)C(O)C(O)C2OC2CC(C)(NCc3ccc(OC(=O)C4CCCCC4)cc3)C(O)C(C)O2)Oc2ccc(cc2Cl)C1O (stereo not shown) [Compound 157, 4-cyclohexanoyloxybenzyl]
3 | ≤ 0.06 µg/mL | 0.5 µg/mL (≈ 0.293 µM) | – | CNC(CC(C)C)C(=O)NC1C(=O)NC(CC(N)=O)C(=O)NC2C(=O)NC3C(=O)NC(C(=O)NC(C(=O)O)c4cc(O)cc(O)c4-c4cc3ccc4O)C(OC3CC(C)(N)C(O)C(C)O3)c3ccc(c(Cl)c3)Oc3cc2cc(c3OC2OC(CO)C(O)C(O)C2OC2CC(C)(NCC=Cc3ccccc3)C(O)C(C)O2)Oc2ccc(cc2Cl)C1O (stereo not drawn) [Compound 38, trans-cinnamyl]
4 | 0.5 µg/mL (≈ 0.29 µM) | ≤ 0.06 µg/mL | – | CNC(CC(C)C)C(=O)NC1C(=O)NC(CC(N)=O)C(=O)NC2C(=O)NC3C(=O)NC(C(=O)NC(C(=O)O)c4cc(O)cc(O)c4-c4cc3ccc4O)C(OC3CC(C)(N)C(O)C(C)O3)c3ccc(c(Cl)c3)Oc3cc2cc(c3OC2OC(CO)C(O)C(O)C2OC2CC(C)(NCc3ccc4c(c3)CCO4)C(O)C(C)O2)Oc2ccc(cc2Cl)C1O (stereo not drawn) [Compound 82, S-[2,3-dihydrobenzfuryl]methyl]
5 | – | 0.5 µg/mL (≈ 0.277 µM) | 8 µg/mL (≈ 4.44 µM) | CNC(CC(C)C)C(=O)NC1C(=O)NC(CC(N)=O)C(=O)NC2C(=O)NC3C(=O)NC(C(=O)NC(C(=O)O)c4cc(O)cc(O)c4-c4cc3ccc4O)C(OC3CC(C)(N)C(O)C(C)O3)c3ccc(c(Cl)c3)Oc3cc2cc(c3OC2OC(CO)C(O)C(O)C2OC2CC(C)(NCCc3cccc(OCc4ccccc4)c3)C(O)C(C)O2)Oc2ccc(cc2Cl)C1O (stereo not shown) [Compound 69, 3-benzyloxyphenethyl]
6 | – | 2 µg/mL (≈ 1.12 µM) | 2 µg/mL (≈ 1.12 µM) | CCc1ccc(-c2ccc(CNC3(C)CC(OC4C(Oc5c6cc7cc5Oc5ccc(cc5Cl)C(OC5CC(C)(N)C(O)C(C)O5)C5NC(=O)C(NC(=O)C7NC(=O)C(CC(N)=O)NC(=O)C(NC(=O)C(CC(C)C)NC)C(O)c7ccc(c(Cl)c7)O6)c6ccc(O)c(c6)-c6c(O)cc(O)cc6C(C(=O)O)NC5=O)OC(CO)C(O)C4O)OC(C)C3O)cc2)cc1 (stereo not shown) [Compound 90, 4-[4-ethylphenyl]benzyl]
7 | – | ≤ 0.06 µg/mL | ≤ 0.06 µg/mL | CNC(CC(C)C)C(=O)NC1C(=O)NC(CC(N)=O)C(=O)NC2C(=O)NC3C(=O)NC(C(=O)NC(C(=O)O)c4cc(O)cc(O)c4-c4cc3ccc4O)C(OC3CC(C)(N)C(O)C(C)O3)c3ccc(c(Cl)c3)Oc3cc2cc(c3OC2OC(CO)C(O)C(O)C2OC2CC(C)(NCc3ccc(-c4cccs4)cc3)C(O)C(C)O2)Oc2ccc(cc2Cl)C1O (stereo not shown) [Compound 218, 4-[2-thienyl]benzyl]
8 | ≤ 0.06 µg/mL | ≤ 0.06 µg/mL | – | CNC(CC(C)C)C(=O)NC1C(=O)NC(CC(N)=O)C(=O)NC2C(=O)NC3C(=O)NC(C(=O)NC(C(=O)O)c4cc(O)cc(O)c4-c4cc3ccc4O)C(OC3CC(C)(N)C(O)C(C)O3)c3ccc(c(Cl)c3)Oc3cc2cc(c3OC2OC(CO)C(O)C(O)C2OC2CC(C)(NCCc3ccc(Oc4ccccc4)cc3)C(O)C(C)O2)Oc2ccc(cc2Cl)C1O (stereo not shown) [Compound 33, 4-phenoxyphenethyl]
9 | – | 0.5 µg/mL (≈ 0.28 µM) | 8 µg/mL (≈ 4.47 µM) | CNC(CC(C)C)C(=O)NC1C(=O)NC(CC(N)=O)C(=O)NC2C(=O)NC3C(=O)NC(C(=O)NC(C(=O)O)c4cc(O)cc(O)c4-c4cc3ccc4O)C(OC3CC(C)(N)C(O)C(C)O3)c3ccc(c(Cl)c3)Oc3cc2cc(c3OC2OC(CO)C(O)C(O)C2OC2CC(C)(NCCc3ccc(Oc4ccccc4)cc3)C(O)C(C)O2)Oc2ccc(cc2Cl)C1O (stereo not shown) [Compound 63, 4-phenoxyphenethyl]
10 | – | 0.5 µg/mL (≈ 0.281 µM) | 2 µg/mL (≈ 1.12 µM) | CNC(CC(C)C)C(=O)NC1C(=O)NC(CC(N)=O)C(=O)NC2C(=O)NC3C(=O)NC(C(=O)NC(C(=O)O)c4cc(O)cc(O)c4-c4cc3ccc4O)C(OC3CC(C)(N)C(O)C(C)O3)c3ccc(c(Cl)c3)Oc3cc2cc(c3OC2OC(CO)C(O)C(O)C2OC2CC(C)(NCc3ccc(N4CCCCC4C)cc3)C(O)C(C)O2)Oc2ccc(cc2Cl)C1O (stereo not shown) [Compound 135, 4-[2-methyl-1-piperidino]benzyl]
11 | – | 0.5 µg/mL (≈ 0.28 µM) | 0.25 µg/mL (≈ 0.14 µM) | CNC(CC(C)C)C(=O)NC1C(=O)NC(CC(N)=O)C(=O)NC2C(=O)NC3C(=O)NC(C(=O)NC(C(=O)O)c4cc(O)cc(O)c4-c4cc3ccc4O)C(OC3CC(C)(N)C(O)C(C)O3)c3ccc(c(Cl)c3)Oc3cc2cc(c3OC2OC(CO)C(O)C(O)C2OC2CC(C)(NCc3c4ccccc4cc4ccccc34)C(O)C(C)O2)Oc2ccc(cc2Cl)C1O (stereo not shown) [Compound 13, 9-anthranylmethyl]
12 | – | 2 µg/mL (≈ 1.12 µM) | 2 µg/mL (≈ 1.12 µM) | CNC(CC(C)C)C(=O)NC1C(=O)NC(CC(N)=O)C(=O)NC2C(=O)NC3C(=O)NC(C(=O)NC(C(=O)O)c4cc(O)cc(O)c4-c4cc3ccc4O)C(OC3CC(C)(N)C(O)C(C)O3)c3ccc(c(Cl)c3)Oc3cc2cc(c3OC2OC(CO)C(O)C(O)C2OC2CC(C)(NCCCCCCCCc3ccccc3)C(O)C(C)O2)Oc2ccc(cc2Cl)C1O (stereo not shown) [Compound 176, 8-phenyloctyl]
13 | – | 0.5 µg/mL (≈ 0.288 µM) | 0.5 µg/mL (≈ 0.288 µM) | CNC(CC(C)C)C(=O)NC1C(=O)NC(CC(N)=O)C(=O)NC2C(=O)NC3C(=O)NC(C(=O)NC(C(=O)O)c4cc(O)cc(O)c4-c4cc3ccc4O)C(OC3CC(C)(N)C(O)C(C)O3)c3ccc(c(Cl)c3)Oc3cc2cc(c3OC2OC(CO)C(O)C(O)C2OC2CC(C)(NCc3ccnc4ccccc34)C(O)C(C)O2)Oc2ccc(cc2Cl)C1O (stereo not shown) [Compound 27, 4-quinolylmethyl]
14 | – | 1 µg/mL (≈ 0.539 µM) | 2 µg/mL (≈ 1.08 µM) | CNC(CC(C)C)C(=O)NC1C(=O)NC(CC(N)=O)C(=O)NC2C(=O)NC3C(=O)NC(C(=O)NC(C(=O)O)c4cc(O)cc(O)c4-c4cc3ccc4O)C(OC3CC(C)(N)C(O)C(C)O3)c3ccc(c(Cl)c3)Oc3cc2cc(c3OC2OC(CO)C(O)C(O)C2OC2CC(C)(NCc3ccc(Cl)c(C(=O)c4ccccc4)c3Cl)C(O)C(C)O2)Oc2ccc(cc2Cl)C1O (stereo not shown) [Compound 133, 3-benzoyl-2,4-dichlorobenzyl]
15 | – | 0.25 µg/mL (≈ 0.138 µM) | 1 µg/mL (≈ 0.552 µM) | CCCCCCCCC#CCCCCCCNC1(C)CC(OC2C(Oc3c4cc5cc3Oc3ccc(cc3Cl)C(OC3CC(C)(N)C(O)C(C)O3)C3NC(=O)C(NC(=O)C5NC(=O)C(CC(N)=O)NC(=O)C(NC(=O)C(CC(C)C)NC)C(O)c5ccc(c(Cl)c5)O4)c4ccc(O)c(c4)-c4c(O)cc(O)cc4C(C(=O)O)NC3=O)OC(CO)C(O)C2O)OC(C)C1O (stereo not shown) [Compound 207, 7-hexadecynyl]
16 | – | 0.25 µg/mL (≈ 0.144 µM) | 2 µg/mL (≈ 1.16 µM) | C=CCCCCCCCCNC1(C)CC(OC2C(Oc3c4cc5cc3Oc3ccc(cc3Cl)C(OC3CC(C)(N)C(O)C(C)O3)C3NC(=O)C(NC(=O)C5NC(=O)C(CC(N)=O)NC(=O)C(NC(=O)C(CC(C)C)NC)C(O)c5ccc(c(Cl)c5)O4)c4ccc(O)c(c4)-c4c(O)cc(O)cc4C(C(=O)O)NC3=O)OC(CO)C(O)C2O)OC(C)C1O (stereo not shown) [Compound 214, 9-decenyl]
17 | – | 8 µg/mL (≈ 4.26 µM) | – | CC#CCCCCCCCCCCOc1ccc(CNC2(C)CC(OC3C(Oc4c5cc6cc4Oc4ccc(cc4Cl)C(OC4CC(C)(N)C(O)C(C)O4)C4NC(=O)C(NC(=O)C6NC(=O)C(CC(N)=O)NC(=O)C(NC(=O)C(CC(C)C)NC)C(O)c6ccc(c(Cl)c6)O5)c5ccc(O)c(c5)-c5c(O)cc(O)cc5C(C(=O)O)NC4=O)OC(CO)C(O)C3O)OC(C)C2O)cc1 (stereo not shown) [Compound 233, 4-[11-tridecynyloxy]benzyl]
18 | – | 1 µg/mL (≈ 0.56 µM) | 1 µg/mL (≈ 0.56 µM) | CNC(CC(C)C)C(=O)NC1C(=O)NC(CC(N)=O)C(=O)NC2C(=O)NC3C(=O)NC(C(=O)NC(C(=O)O)c4cc(O)cc(O)c4-c4cc3ccc4O)C(OC3CC(C)(N)C(O)C(C)O3)c3ccc(c(Cl)c3)Oc3cc2cc(c3OC2OC(CO)C(O)C(O)C2OC2CC(C)(NCc3ccc(-c4ccccc4C)c(C)c3)C(O)C(C)O2)Oc2ccc(cc2Cl)C1O (stereo not shown) [Compound 237, 4-[2-methylphenyl]-3-methylbenzyl]
19 | – | 2 µg/mL (≈ 1.24 µM) | ≤ 0.06 µg/mL | CNC(CC(C)C)C(=O)NC1C(=O)NC(CC(N)=O)C(=O)NC2C(=O)NC3C(=O)NC(C(=O)NC(C(=O)O)c4cc(O)cc(O)c4-c4cc3ccc4O)C(O)c3ccc(c(Cl)c3)Oc3cc2cc(c3OC2OC(CO)C(O)C(O)C2OC2CC(C)(NCc3ccc(-c4ccccc4)cc3)C(O)C(C)O2)Oc2ccc(cc2Cl)C1O (stereo not shown) [Compound 181, 4-phenylbenzyl]

Row | Compound | MIC [1] | MIC (Entercoccus faecalis 276) | MIC [2]
20 | CNC(CC(C)C)C(=O)NC1C(=O)NC(CC(N)=O)C(=O)NC2C(=O)NC3C(=O)NC(C(=O)NC(C(=O)O)c4cc(O)cc(O)c4-c4cc3ccc4O)C(OC3CC(C)(N)C(O)C(C)O3)c3ccc(c(Cl)c3)Oc3cc2cc(c3OC2OC(CO)C(O)C(O)C2OC2CC(C)(NCc3ccc(OC(C)=O)cc3)C(O)C(C)O2)Oc2ccc(cc2Cl)C1O (stereo not shown) [Compound 138, 4-acetoxybenzyl] | ≤ 0.06 µg/mL | ≤ 0.06 µg/mL | –
21 | CNC(CC(C)C)C(=O)NC1C(=O)NC(CC(N)=O)C(=O)NC2C(=O)NC3C(=O)NC(C(=O)NC(C(=O)O)c4cc(O)cc(O)c4-c4cc3ccc4O)C(OC3CC(C)(N)C(O)C(C)O3)c3ccc(c(Cl)c3)Oc3cc2cc(c3OC2OC(CO)C(O)C(O)C2OC2CC(C)(NCc3ccc(OCCOC(C)(C)C)cc3)C(O)C(C)O2)Oc2ccc(cc2Cl)C1O (stereo not shown) [Compound 154, 4-[2-t-butoxyethoxy]benzyl] | – | 0.5 µg/mL (≈ 0.278 µM) | 4 µg/mL (≈ 2.22 µM)

Reference: patent publication US5843889A, “Glycopeptide antibiotic derivatives” (Eli Lilly and Company, priority 1997, dated 1998)
